Assay results as given in ChEMBL document CHEMBL1201862, “PubChem BioAssay data set” (2004).
Activity calls are given as the source filed them.

What was measured:
[1] = biological target: Cytochrome P450 2D6 (Homo sapiens, UniProt P10635);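 note: CYP2D6 member of a cytochrome P450 panel assay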
[2] = biological target: Cytochrome P450 2C19 (Homo sapiens, UniProt P33261); experiment: Cytochrome panel assay with activity outcomes. Panel member name: p450-cyp2c19 Compounds with AC50 equal or less than 10 uM are considered active; assay type: functional; conditions: read-out: AC50
Cytochrome P450 2C19, sequence (P33261 whole entry): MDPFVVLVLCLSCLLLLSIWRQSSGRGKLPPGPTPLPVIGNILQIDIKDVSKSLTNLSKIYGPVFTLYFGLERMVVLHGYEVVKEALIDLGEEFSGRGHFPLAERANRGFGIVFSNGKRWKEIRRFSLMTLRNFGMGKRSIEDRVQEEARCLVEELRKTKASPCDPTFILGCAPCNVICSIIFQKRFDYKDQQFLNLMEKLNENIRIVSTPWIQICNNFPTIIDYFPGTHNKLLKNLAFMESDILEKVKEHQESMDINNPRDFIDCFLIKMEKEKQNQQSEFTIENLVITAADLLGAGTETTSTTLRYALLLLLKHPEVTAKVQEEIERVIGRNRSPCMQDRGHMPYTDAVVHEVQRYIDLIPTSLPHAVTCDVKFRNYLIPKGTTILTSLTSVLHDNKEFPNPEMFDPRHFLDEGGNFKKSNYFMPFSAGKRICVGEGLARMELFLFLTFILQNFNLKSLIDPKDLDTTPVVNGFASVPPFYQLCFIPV

[3] = A Cell Based Secondary Assay To Explore Cytotoxicity of Compounds that Sensitize Mycobacterium Tuberculosis to Beta-Lactam Antibiotics.; assay type: functional
[4] = tested on: HeLa; experiment: HeLa cell cytotoxicity, dose response, cytotoxicity control, 24 h, cherry-picked samples (AID 504726); assay type: functional, cell-based; conditions: Homo sapiens;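 note: potency for cytotoxicity as loss of luminescence signal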
[5] = biological target: T1, Rac GTPase-activating protein 1 (Homo sapiens, UniProt Q9H0H5); experiment: MgcRacGAP GTPase-activating activity inhibitors, confirmation, biochemical, ADP Hunter fluorescence, primary and confirmatory (AID 624330); assay type: functional
T1 sequence (Q9H0H5 whole entry): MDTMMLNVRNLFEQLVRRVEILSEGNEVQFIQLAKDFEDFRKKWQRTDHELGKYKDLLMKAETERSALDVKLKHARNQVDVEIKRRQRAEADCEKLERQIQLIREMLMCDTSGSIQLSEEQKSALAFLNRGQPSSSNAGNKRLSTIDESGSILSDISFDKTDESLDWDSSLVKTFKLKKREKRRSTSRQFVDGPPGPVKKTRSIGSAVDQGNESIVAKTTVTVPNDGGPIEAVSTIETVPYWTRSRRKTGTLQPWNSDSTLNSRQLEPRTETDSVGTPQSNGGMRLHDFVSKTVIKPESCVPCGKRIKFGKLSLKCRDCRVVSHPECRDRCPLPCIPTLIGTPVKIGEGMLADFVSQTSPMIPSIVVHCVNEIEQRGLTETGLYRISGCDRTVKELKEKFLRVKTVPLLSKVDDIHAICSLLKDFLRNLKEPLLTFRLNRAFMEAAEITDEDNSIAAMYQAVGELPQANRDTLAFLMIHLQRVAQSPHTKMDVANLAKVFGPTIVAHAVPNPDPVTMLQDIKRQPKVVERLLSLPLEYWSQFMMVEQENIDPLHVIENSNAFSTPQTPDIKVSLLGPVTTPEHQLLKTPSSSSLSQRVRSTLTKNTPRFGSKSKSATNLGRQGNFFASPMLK

[6] = HeLa cell cytotoxicity, dose response, cytotoxicity control for MgcRacGAP inhibitor project (AID 624300); assay type: functional
[7] = Jurkat T cell cytotoxicity, dose response, cytotoxicity control for P. falciparum gametocyte viability project, luminescence (AID 1117277); assay type: functional, cell-based;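 note: potency reflects loss of cellular ATP meaning fewer viable cells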
[8] = P. falciparum late gametocyte killing, dose response, luminescence (AID 1117278); assay type: functional, cell-based;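 note: gametocytes exposed to compound for 24 hours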
[9] = inhibitors of intracellular T. cruzi replication, confirmation, NIH3T3 host cells, beta-gal luminescence (AID 2044); assay type: functional, cell-based;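 note: intracellular parasites grown in NIH/3T3 mouse fibroblasts as host cells; luminescent beta-galactosidase reporter signal from transgenic T. cruzi replicating inside host cells; inhibitors lower the luminescence signal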
[10] = cytotoxicity toward NIH3T3 fibroblasts, dose response, counter-screen, cell-based, ATP luminescence, mouse fibroblasts (AID 2010); assay type: functional;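 note: cells exposed to compound for about 90 hours before reading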
[11] = biological target: T2, Calpain-2 catalytic subunit (Sus scrofa, UniProt P43367); experiment: pig calpain II inhibitor potency, dose response, biochemical, fluorogenic peptide substrate (AID 1420); assay type: functional
T2 sequence (P43367 whole entry): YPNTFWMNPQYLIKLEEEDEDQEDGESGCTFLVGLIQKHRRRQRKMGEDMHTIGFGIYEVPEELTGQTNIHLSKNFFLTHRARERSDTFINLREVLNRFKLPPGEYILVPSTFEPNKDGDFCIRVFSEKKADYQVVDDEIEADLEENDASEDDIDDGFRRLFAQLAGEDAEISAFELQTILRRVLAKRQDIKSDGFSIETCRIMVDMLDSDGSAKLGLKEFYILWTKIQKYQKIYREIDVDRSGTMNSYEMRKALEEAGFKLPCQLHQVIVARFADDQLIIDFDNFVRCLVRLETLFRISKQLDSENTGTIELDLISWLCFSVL

[12] = inhibitors of Vif binding to APOBEC3G peptide, primary screen, biochemical, TR-FRET, GST-Vif 1-94, biotin-A3G peptide, dose response retest (AID 1117319); assay type: functional;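 note: TR-FRET signal of purified GST-Vif binding a biotinylated A3G peptide; inhibitors lower the FRET signal by blocking Vif and A3G binding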
[13] = Luminescence Cell-Based Dose Retest to Confirm Inhibitors of Cancer Stem Cells. [Related pubchem assays (depositor defined):AID2717, AID2721]; assay type: functional; conditions: Homo sapiens
[14] = biological target: Heat shock protein HSP 90-alpha (Homo sapiens, UniProt P07900); assay type: functional, organism-based
[15] = biological target: Large T antigen (Simian virus 40, UniProt P03070); assay type: functional, Betapolyomavirus macacae;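 note: Confirmatory-stage PubChem screen for compounds that inhibit SV40 T antigen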
Large T antigen, sequence (P03070 whole entry): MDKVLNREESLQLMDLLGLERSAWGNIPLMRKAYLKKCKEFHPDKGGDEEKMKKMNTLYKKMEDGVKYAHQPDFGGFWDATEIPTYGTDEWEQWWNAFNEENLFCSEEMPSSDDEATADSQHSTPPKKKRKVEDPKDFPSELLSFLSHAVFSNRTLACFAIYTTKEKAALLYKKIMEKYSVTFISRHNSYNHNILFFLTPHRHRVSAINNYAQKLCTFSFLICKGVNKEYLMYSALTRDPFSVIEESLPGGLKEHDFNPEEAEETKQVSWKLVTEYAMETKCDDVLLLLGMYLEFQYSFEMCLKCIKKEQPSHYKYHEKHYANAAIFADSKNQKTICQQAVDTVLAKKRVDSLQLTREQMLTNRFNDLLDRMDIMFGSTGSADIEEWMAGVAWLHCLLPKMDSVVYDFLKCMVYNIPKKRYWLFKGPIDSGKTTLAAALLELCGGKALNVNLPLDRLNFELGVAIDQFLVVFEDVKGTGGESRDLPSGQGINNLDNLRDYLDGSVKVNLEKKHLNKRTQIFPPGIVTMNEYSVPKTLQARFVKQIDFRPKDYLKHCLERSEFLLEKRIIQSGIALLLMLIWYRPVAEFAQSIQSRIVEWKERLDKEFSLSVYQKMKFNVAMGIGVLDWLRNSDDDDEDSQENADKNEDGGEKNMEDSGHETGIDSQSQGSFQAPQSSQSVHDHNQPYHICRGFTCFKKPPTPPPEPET

[16] = HEK293 cell cytotoxicity, dose response, cytotoxicity control, plate reader, cherry-picked samples (AID 743446); assay type: functional, cell-based
[17] = A549 cell cytotoxicity, dose response, cytotoxicity control, plate reader, cherry-pick, antagonist series (AID 743412); assay type: functional, cell-based
[18] = LGR2 antagonists, dose response, cell-based, HEK293, CRE-luciferase reporter, cherry pick, set 2 (AID 743343); assay type: functional;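 note: transfected cells were stimulated with diluted bursicon conditioned medium after compound addition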
[19] = MC4R antagonists, dose response, counter-screen for LGR2 antagonist project, cell-based, plate reader, cherry pick (AID 743444); assay type: functional;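 note: transfected HEK 293 cells stimulated with alpha-MSH peptide; potency of inhibitors of the alpha-MSH evoked signal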
[20] = HepG2 cell cytotoxicity, dose response, cytotoxicity control, plate reader, cherry-pick, antagonist series (AID 743416); assay type: functional, cell-based
[21] = biological target: T3, Aminopeptidase N (Plasmodium falciparum FcB1/Columbia, UniProt O96935); experiment: P. falciparum M1AAP inhibitors, biochemical, fluorogenic H-Leu-NHMec substrate, 1536-well (AID 1445); design: species or system Plasmodium falciparum 3D7, 3D7
T3 sequence (O96935 whole entry): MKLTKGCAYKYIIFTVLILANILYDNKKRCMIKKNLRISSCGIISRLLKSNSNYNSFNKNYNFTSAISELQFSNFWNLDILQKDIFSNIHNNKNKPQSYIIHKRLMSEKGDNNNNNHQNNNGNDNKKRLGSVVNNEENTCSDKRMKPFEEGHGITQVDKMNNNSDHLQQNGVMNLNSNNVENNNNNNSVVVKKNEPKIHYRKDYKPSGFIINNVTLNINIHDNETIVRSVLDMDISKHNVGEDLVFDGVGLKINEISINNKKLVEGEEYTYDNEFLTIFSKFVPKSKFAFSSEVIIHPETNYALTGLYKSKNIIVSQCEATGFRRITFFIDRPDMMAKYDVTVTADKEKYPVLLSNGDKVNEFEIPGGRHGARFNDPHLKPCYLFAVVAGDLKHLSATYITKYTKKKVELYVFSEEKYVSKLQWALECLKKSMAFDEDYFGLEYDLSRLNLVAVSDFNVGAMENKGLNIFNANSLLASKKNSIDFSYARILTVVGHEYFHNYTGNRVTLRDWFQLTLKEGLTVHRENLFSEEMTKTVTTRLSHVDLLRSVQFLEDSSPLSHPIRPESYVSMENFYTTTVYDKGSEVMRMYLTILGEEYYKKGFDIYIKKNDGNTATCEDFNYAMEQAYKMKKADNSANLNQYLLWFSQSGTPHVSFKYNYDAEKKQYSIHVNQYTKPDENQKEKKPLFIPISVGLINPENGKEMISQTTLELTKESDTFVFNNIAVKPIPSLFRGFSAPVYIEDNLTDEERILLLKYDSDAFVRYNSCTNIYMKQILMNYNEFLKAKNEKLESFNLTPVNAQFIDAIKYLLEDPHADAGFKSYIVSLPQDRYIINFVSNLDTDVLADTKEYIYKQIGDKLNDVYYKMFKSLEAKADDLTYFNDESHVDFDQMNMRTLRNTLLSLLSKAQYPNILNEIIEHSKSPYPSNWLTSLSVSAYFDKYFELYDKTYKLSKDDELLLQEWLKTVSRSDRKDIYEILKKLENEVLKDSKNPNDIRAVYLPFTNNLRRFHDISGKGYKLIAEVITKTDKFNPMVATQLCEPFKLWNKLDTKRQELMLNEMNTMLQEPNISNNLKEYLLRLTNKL

[22] = P. falciparum Dd2 growth inhibitors, dose response, SYBR Green, cherry-picked samples (AID 1159567); assay type: functional, cell-based
[23] = P. falciparum ATP4 D1247Y mutant growth inhibitors, dose response, NITD609-resistant line, SYBR Green, dry powder (AID 1159571); assay type: functional, cell-based;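 note: parasites synchronized at ring stage by sorbitol before testing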
[24] = P. falciparum 3D7-ScDHODH growth inhibitors, dose response, SYBR Green, dry powder samples (AID 1159570); assay type: functional, cell-based;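 note: parasite growth measured after 72 hours of compound exposure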
[25] = P. falciparum Dd2 growth inhibitors, dose response, SYBR Green, dry powder samples (AID 1159566); assay type: functional, cell-based;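 note: potency for growth inhibition with lower SYBR green DNA signal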

Cytochrome P450 2D6, sequence (P10635 whole entry): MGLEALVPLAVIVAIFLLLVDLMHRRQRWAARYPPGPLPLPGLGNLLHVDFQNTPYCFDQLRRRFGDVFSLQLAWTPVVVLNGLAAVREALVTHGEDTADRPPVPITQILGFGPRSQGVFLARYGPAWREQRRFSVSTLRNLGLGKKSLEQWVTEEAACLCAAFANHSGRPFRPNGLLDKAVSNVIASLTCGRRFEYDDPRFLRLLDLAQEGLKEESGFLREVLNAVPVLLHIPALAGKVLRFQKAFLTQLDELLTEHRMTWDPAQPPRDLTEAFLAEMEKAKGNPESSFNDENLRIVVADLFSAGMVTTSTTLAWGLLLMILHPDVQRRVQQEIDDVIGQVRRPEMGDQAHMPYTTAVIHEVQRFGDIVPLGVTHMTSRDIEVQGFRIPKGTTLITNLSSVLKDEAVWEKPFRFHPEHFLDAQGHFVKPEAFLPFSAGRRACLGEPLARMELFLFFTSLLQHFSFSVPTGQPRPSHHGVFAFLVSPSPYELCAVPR

## Cc1[nH]c2c(C)cccc2c1CCNC(=O)c1ccc2c(c1[N+](=O)[O-])C(=O)c1ccccc1C2=O
[1]
  AC50: 2 µM (inconclusive)
[2]
  AC50: 0.398 µM (inconclusive)
[3]
  CC50: 17.2 µM (active)

## N#C/C(=C\c1ccc(-c2ccccc2[N+](=O)[O-])o1)C(N)=O
[4]
  AC50: 83.5 µM (active)

## Cc1ccc(CN2CCN(Cc3ccccc3C(F)(F)F)CC2)cc1
[5]
  IC50: 40.4 µM (active)
[6]
  CC50: 100 µM (active)

## C1CCN(CCCNC2C3CC4CC(C3)CC2C4)C1 (configuration not stated)
[7]
  IC50: > 83.3 µM (inactive)
[8]
  IC50: > 109 µM (inactive)

## CCS(=O)(=O)NCC(c1cccnc1)N1CCN(c2ccc(OC)cc2)CC1 (configuration not stated)
[9]
  EC50: 0.916 µM (active)
[10]
  EC50: 22 µM (active)
[11]
  IC50: 24.7 µM (not active)

## Oc1nc(-c2ccccc2Cl)nc2c1sc(=S)n2-c1ccccc1
[11]
  IC50: 41.7 µM (not active)

## COc1ccc(CN2CCN(Cc3ccccc3)CC2)c(OC)c1
[7]
  IC50: > 83.3 µM (inactive)
[8]
  IC50: > 109 µM (inactive)

## COC(=O)C1=C(c2ccc(OC(F)(F)F)cc2)C[C@@H]2CC[C@H]1N2C(=O)NC1CCCCC1
[4]
  AC50: > 350 µM (inactive)

## Cc1ccc(N=Nc2ccc(N)cc2C)c(S(N)(=O)=O)c1
[12]
  IC50: > 100 µM (active)

## Cc1cc(C(=O)NCc2cccnc2)no1
[7]
  IC50: > 83.3 µM (inactive)
[8]
  IC50: > 109 µM (inactive)

## CCn1c(SCC(=O)n2c(C)c(C)c3ccccc32)nnc1-c1ccco1
[12]
  IC50: > 100 µM (active)

## CCc1nc(C)ccc1OC(=O)C12CC3CC(CC(C3)C1)C2
[11]
  IC50: 8.73 µM (not active)

## CN(Cc1nc(-c2cnccn2)no1)Cc1[nH]nc2c1CCCC2
[11]
  IC50: 7.73 µM (not active)

## CCOc1cccc(SCc2noc(C(=O)NCC3CCCO3)c2C(=O)O)c1 (configuration not stated)
[12]
  IC50: > 100 µM (active)

## Cc1cc(Cl)cc(C)c1OCCOCCNCc1ccccc1
[5]
  IC50: 128 µM (active)
[6]
  CC50: 100 µM (active)

## CC(=O)Nc1nonc1-c1nc2ccccc2n1CCC(C)C
[3]
  CC50: > 40 µM (active)

## Cc1cc2ccccn2c1C(=O)c1ccc([N+](=O)[O-])o1
[13]
  AC50: 2.84 µM (active)
[14]
  AC50: 3.38 µM (active)
[3]
  CC50: 8.69 µM (active)

## COc1cc(-c2nc3cnccn3c2Nc2ccccc2)ccc1O
[15]
  IC50: 5.05 µM (active)

## CN(C)S(=O)(=O)N(CC(=O)Nc1ccccc1)c1ccccc1
[7]
  IC50: > 83.3 µM (inactive)
[8]
  IC50: > 109 µM (inactive)

## O=C(/C=C/c1ccc2c(c1)OCO2)Nc1nc2ccccc2s1
[3]
  CC50: > 40 µM (active)

## O=C1NC(=O)N(Cc2ccc(F)cc2)C(=O)/C1=C\c1ccoc1
[15]
  IC50: 56.4 µM (active)

## COc1ccc(C(=O)Nc2nc3ccccc3[nH]2)cc1
[16]
  AC50: > 52 µM (inactive)
[17]
  AC50: 34.6 µM (active)
[18]
  AC50: 2.45 µM (active)
[19]
  AC50: 2.84 µM (active)
[20]
  AC50: > 52 µM (inactive)

## CCC(CC)C(=O)Nc1ccc(S(=O)(=O)Nc2nccs2)cc1
[11]
  IC50: 11.7 µM (not active)

## CCCCN(CC)CCNC(=O)CN(C)S(=O)(=O)c1ccc2c(c1)c(=O)n(C)c(=O)n2C
[7]
  IC50: > 83.3 µM (inactive)
[8]
  IC50: > 109 µM (inactive)

## Nc1ccc(Cn2ccc3c4c(N)nc(N)nc4ccc32)cc1
[5]
  IC50: 77 µM (active)
[6]
  CC50: 49.5 µM (active)

## COc1cc(/C=N/N2C(=O)CSC2=S)cc(Br)c1O
[21]
  IC50: 107 µM (active)
[15]
  IC50: 12.8 µM (active)

## C[C@@H]1CN([C@H](C)CO)C(=O)c2cc(/C=C/c3ccccc3)cnc2O[C@H]1CN(C)C(=O)NC1CCCCC1
[22]
  AC50: 2.73 µM (active)
[23]
  AC50: 1.76 µM (active)
[24]
  AC50: 2.03 µM (active)
[25]
  AC50: 1.06 µM (active)

## COc1ccc(OC)c(/C(O)=C/C(=O)C(=O)Nc2ccccc2OC)c1
[12]
  IC50: > 100 µM (active)

## CC1=[N+](C)N(c2ccccc2)C(=O)C1/N=C/C=C/c1ccccc1 (configuration not stated)
[4]
  AC50: 308 µM (active)

## O=C(CCN1CCOCC1)c1ccc(N2CCCCC2)cc1
[3]
  CC50: 29.2 µM (active)
